For 7 compounds, EC50 and Emax results are on record in patent US10988523B2, “Modified lipidated Relaxin B chain peptides and their therapeutic use” (Sanofi, priority 2018, dated 2021).

This assay deals with T1, RXFP1 (Homo sapiens, UniProt Q9HBX9).
T1 construct: OVCAR5 cells expressing endogenous RXFP1; endogenous in cells; host or cells: OVCAR5 cells
T1 sequence (Q9HBX9 1-757): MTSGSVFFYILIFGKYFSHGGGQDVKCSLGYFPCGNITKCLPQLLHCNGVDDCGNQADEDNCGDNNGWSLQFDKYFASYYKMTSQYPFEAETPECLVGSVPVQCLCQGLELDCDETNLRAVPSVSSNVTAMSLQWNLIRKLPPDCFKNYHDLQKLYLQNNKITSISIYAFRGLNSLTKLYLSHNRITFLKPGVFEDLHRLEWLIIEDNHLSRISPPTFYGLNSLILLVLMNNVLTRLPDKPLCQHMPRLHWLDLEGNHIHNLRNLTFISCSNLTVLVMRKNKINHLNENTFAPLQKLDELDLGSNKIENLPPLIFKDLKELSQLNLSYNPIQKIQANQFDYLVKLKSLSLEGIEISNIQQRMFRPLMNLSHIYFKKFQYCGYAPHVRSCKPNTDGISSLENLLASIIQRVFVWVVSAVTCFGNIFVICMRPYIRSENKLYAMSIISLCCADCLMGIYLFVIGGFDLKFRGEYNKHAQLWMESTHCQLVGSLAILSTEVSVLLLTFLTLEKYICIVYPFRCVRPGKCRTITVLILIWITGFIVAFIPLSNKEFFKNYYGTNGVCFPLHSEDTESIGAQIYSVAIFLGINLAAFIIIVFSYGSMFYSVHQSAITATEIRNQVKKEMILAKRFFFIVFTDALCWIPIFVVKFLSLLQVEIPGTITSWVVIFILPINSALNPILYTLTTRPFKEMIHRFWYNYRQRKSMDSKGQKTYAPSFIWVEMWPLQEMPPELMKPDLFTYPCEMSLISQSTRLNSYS
Description: OVCAR5 cAMP assay (HTRF), RXFP1 agonist activity. The class given is cell-based. Conditions: for EC50: OVCAR5 cells, cAMP HTRF, read-out: EC50 (nM), OVCAR 5 cells (cAMP); for Emax: OVCAR-5, maximal cAMP relative to H2-relaxin maximum (100%), read-out: EMax, OVCAR 5 cells (cAMP). The essentials: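 OVCAR5 cells (endogenous RXFP1) pretreated 40 min at 37° C with 1 mM IBMX, then exposed to peptides in serum-free medium for 30 min at 37° C. Lysate cAMP read by HTRF; EC50 from variable-slope sigmoidal fit; Emax as % of H2-relaxin maximal cAMP in same run.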

*1 amine or outer side, *2 acyl side, *3 side chain or, on linkers, in order; H or OH if unused. Where a SMILES comes first, the peptide text is derived from it. Side-chain parts run from the residue outwards. [ ]: non-standard residue; d: D form. The star is where a group is joined. PEG12 = NCCOCCOCCOCCOCCOCCOCCOCCOCCOCCOCCOCCOCCC(=O)O; Lys(Me3) = C[N+](C)(C)CCCC[C@H](N)C(=O)O; γGlu = O=C(O)[C@H](CCC(=O)[*:2])N[*:1]; Pentadecanoyl = CCCCCCCCCCCCCCC(=O)*; Arg(Me) = CNC(=N)NCCC[C@H](N)C(=O)O; Stearoyl = CCCCCCCCCCCCCCCCCC(=O)*; Palmitoyl = CCCCCCCCCCCCCCCC(=O)*; αMeK = C[C@](N)(CCCCN)C(=O)O; Lauroyl = CCCCCCCCCCCC(=O)*; αMeS = C[C@](N)(CO)C(=O)O; Nle = CCCC[C@H](N)C(=O)O; AEEA = NCCOCCOCC(=O)O; Aib = CC(C)(N)C(=O)O

Consider `CCCCCCCCCCCCCCCCCC(=O)N[C@@H](CCC(=O)N[C@@H](CCC(=O)N[C@@H](CCC(=O)NCCCC[C@H](NC(=O)CCOCCOCCOCCOCCOCCOCCOCCOCCOCCOCCOCCOCCNC(=O)[C@H](CCCCNC(C)=O)NC(=O)[C@H](CCCCN)NC(=O)[C@H](CCCNC(=N)N)NC(=O)C(C)(C)NC(=O)[C@](C)(CO)NC(=O)[C@H](Cc1c[nH]c2ccccc12)NC(=O)[C@@H](NC(=O)[C@H](CO)NC(=O)[C@H](CCCC)NC(=O)CNC(=O)[C@H](CCC(=O)O)NC(=O)C(C)(C)NC(=O)C(C)(C)NC(=O)[C@@H](NC(=O)[C@H](CCCCNC(C)=O)NC(=O)[C@H](C)NC(=O)[C@H](CCCNC(=N)N)NC(=O)[C@@H](NC(=O)[C@H](CCCCN)NC(=O)[C@H](CCC(=O)O)NC(=O)[C@H](CCCNC(=N)N)NC(=O)CNC(=O)[C@H](CCC(=O)O)NC(=O)[C@H](CC(C)C)NC(C)=O)C(C)C)[C@@H](C)CC)[C@@H](C)O)C(N)=O)C(=O)O)C(=O)O)C(=O)O` [compound 41] (Ac-LEGREKVRAK(Ac)I[Aib][Aib]EG[Nle]STW[αMeS][Aib]RKK(Ac)[PEG12]K([γGlu-γGlu-γGlu-Stearoyl])-NH2), for which the EC50 (usually the concentration giving half of the maximal effect) was 0.09 nM and the Emax (commonly the size of the effect at its maximum, as opposed to the concentration needed) stood at 87%.
For the compound `CCCCCCCCCCCCCCC(=O)N[C@@H](CCC(=O)N[C@@H](CCC(=O)N[C@@H](CCC(=O)NCCOCCOCC(=O)NCCOCCOCC(=O)NCCOCCOCC(=O)NCCCC[C@H](NC(=O)[C@H](CCCCNC(C)=O)NC(=O)[C@H](CCCCN)NC(=O)[C@H](CCCNC(=N)N)NC(=O)C(C)(C)NC(=O)[C@H](CO)NC(=O)[C@H](Cc1c[nH]c2ccccc12)NC(=O)[C@@H](NC(=O)[C@H](CO)NC(=O)[C@H](CCCC)NC(=O)CNC(=O)[C@H](CCC(=O)O)NC(=O)C(C)(C)NC(=O)C(C)(C)NC(=O)[C@@H](NC(=O)[C@H](CCCCNC(C)=O)NC(=O)[C@H](C)NC(=O)[C@H](CCCNC(=N)N)NC(=O)[C@@H](NC(=O)[C@H](CCCCN)NC(=O)[C@H](CCC(=O)O)NC(=O)[C@H](CCCNC(=N)N)NC(=O)CNC(=O)[C@H](CCC(=O)O)NC(=O)[C@H](CC(C)C)NC(C)=O)C(C)C)[C@@H](C)CC)[C@@H](C)O)C(N)=O)C(=O)O)C(=O)O)C(=O)O` [compound 163] (Ac-LEGREKVRAK(Ac)I[Aib][Aib]EG[Nle]STWS[Aib]RKK(Ac)K([AEEA-AEEA-AEEA-γGlu-γGlu-γGlu-Pentadecanoyl])-NH2), the Emax was determined as 87%.
As to `CCCCCCCCCCCC(=O)N[C@@H](CCC(=O)N[C@@H](CCC(=O)N[C@@H](CCC(=O)N[C@@H](CCC(=O)NCCCC[C@H](NC(=O)COCCOCCNC(=O)COCCOCCNC(=O)COCCOCCNC(=O)COCCOCCNC(=O)[C@H](CCCCNC(C)=O)NC(=O)[C@H](C)NC(=O)[C@H](CCCNC(=N)N)NC(=O)[C@](C)(CCCCN)NC(=O)[C@H](CO)NC(=O)[C@H](Cc1ccccc1)NC(=O)[C@@H](NC(=O)[C@H](CO)NC(=O)[C@H](CCC(N)=O)NC(=O)CNC(=O)[C@H](CCC(=O)O)NC(=O)C(C)(C)NC(=O)C(C)(C)NC(=O)[C@@H](NC(=O)[C@H](CCCCNC(C)=O)NC(=O)[C@H](C)NC(=O)[C@H](CCCNC(=N)N)NC(=O)[C@@H](NC(=O)[C@H](CCCCN)NC(=O)[C@H](CCC(=O)O)NC(=O)[C@H](CCCNC(=N)N)NC(=O)CNC(=O)[C@H](CCC(=O)O)NC(=O)[C@H](CC(C)C)NC(C)=O)C(C)C)[C@@H](C)CC)[C@@H](C)O)C(N)=O)C(=O)O)C(=O)O)C(=O)O)C(=O)O` [compound 161] (Ac-LEGREKVRAK(Ac)I[Aib][Aib]EGQSTFS[αMeK]RAK(Ac)[AEEA][AEEA][AEEA][AEEA]K([γGlu-γGlu-γGlu-γGlu-Lauroyl])-NH2), the Emax stood at 94%.
Regarding `CCCCCCCCCCCCCCCC(=O)N[C@@H](CCC(=O)NCCCC[C@H](NC(=O)CC[C@H](NC(=O)CC[C@H](NC(=O)COCCOCCNC(=O)COCCOCCNC(=O)COCCOCCNC(=O)[C@H](CCCCNC(C)=O)NC(=O)[C@H](CCCCN)NC(=O)[C@H](CCCNC(=N)N)NC(=O)C(C)(C)NC(=O)[C@H](CO)NC(=O)[C@H](Cc1c[nH]c2ccccc12)NC(=O)[C@@H](NC(=O)[C@H](CO)NC(=O)[C@H](CCCC)NC(=O)CNC(=O)[C@H](CCC(=O)O)NC(=O)C(C)(C)NC(=O)C(C)(C)NC(=O)[C@@H](NC(=O)[C@H](CCC(N)=O)NC(=O)[C@H](C)NC(=O)[C@H](CCCNC(=N)N)NC(=O)[C@@H](NC(=O)[C@H](CCCCN)NC(=O)[C@H](CCC(=O)O)NC(=O)[C@H](CCCNC(=N)N)NC(=O)CNC(=O)[C@H](CCC(=O)O)NC(=O)[C@H](CC(C)C)NC(C)=O)C(C)C)[C@@H](C)CC)[C@@H](C)O)C(=O)O)C(=O)O)C(N)=O)C(=O)O` [compound 119] (Ac-LEGREKVRAQI[Aib][Aib]EG[Nle]STWS[Aib]RKK(Ac)[AEEA][AEEA][AEEA][γGlu][γGlu]K([γGlu-Palmitoyl])-NH2), the EC50 came out at 1.21 nM and the maximal response (Emax) was found to be 83%.
For the compound `CCCCCCCCCCCCCCCCCC(=O)N[C@@H](CCC(=O)N[C@@H](CCC(=O)N[C@@H](CCC(=O)NCCOCCOCC(=O)NCCOCCOCC(=O)NCCOCCOCC(=O)NCCCC[C@H](NC(=O)[C@H](CCCCNC(C)=O)NC(=O)[C@H](CCCCN)NC(=O)[C@H](CCCNC(=N)NC)NC(=O)C(C)(C)NC(=O)[C@H](CO)NC(=O)[C@H](Cc1c[nH]c2ccccc12)NC(=O)[C@@H](NC(=O)[C@H](CO)NC(=O)[C@H](CCCC)NC(=O)CNC(=O)[C@H](CCC(=O)O)NC(=O)C(C)(C)NC(=O)C(C)(C)NC(=O)[C@@H](NC(=O)[C@H](CCCCNC(C)=O)NC(=O)[C@H](C)NC(=O)[C@H](CCCNC(=N)N)NC(=O)[C@@H](NC(=O)[C@H](CCCCN)NC(=O)[C@H](CCC(=O)O)NC(=O)[C@H](CCCNC(=N)N)NC(=O)CNC(=O)[C@H](CCC(=O)O)NC(=O)[C@H](CC(C)C)NC(C)=O)C(C)C)[C@@H](C)CC)[C@@H](C)O)C(N)=O)C(=O)O)C(=O)O)C(=O)O` [compound 133] (Ac-LEGREKVRAK(Ac)I[Aib][Aib]EG[Nle]STWS[Aib][Arg(Me)]KK(Ac)K([AEEA-AEEA-AEEA-γGlu-γGlu-γGlu-Stearoyl])-NH2), the EC50 stood at 0.01 nM and the maximal effect (Emax) was found to be 83%.
In the same order, the values of `CCCCCCCCCCCCCCCC(=O)N[C@@H](CCC(=O)N[C@@H](CCC(=O)N[C@@H](CCC(=O)N[C@@H](CCC(=O)NCCOCCOCC(=O)NCCOCCOCC(=O)NCCOCCOCC(=O)NCCOCCOCC(=O)NCCCC[C@H](NC(=O)[C@H](CCCCNC(C)=O)NC(=O)[C@H](CCCC[N+](C)(C)C)NC(=O)[C@H](CCCNC(=N)NC)NC(=O)[C@](C)(CCCCN)NC(=O)[C@H](CO)NC(=O)[C@H](Cc1c[nH]c2ccccc12)NC(=O)[C@@H](NC(=O)[C@H](CO)NC(=O)[C@H](CCCC)NC(=O)CNC(=O)[C@H](CCC(=O)O)NC(=O)C(C)(C)NC(=O)C(C)(C)NC(=O)[C@@H](NC(=O)[C@H](CCCCNC(C)=O)NC(=O)[C@H](C)NC(=O)[C@H](CCCNC(=N)N)NC(=O)[C@@H](NC(=O)[C@H](CCCCN)NC(=O)[C@H](CCC(=O)O)NC(=O)[C@H](CCCNC(=N)N)NC(=O)CNC(=O)[C@H](CCC(=O)O)NC(=O)[C@H](CC(C)C)NC(C)=O)C(C)C)[C@@H](C)CC)[C@@H](C)O)C(N)=O)C(=O)O)C(=O)O)C(=O)O)C(=O)O` [compound 141] (Ac-LEGREKVRAK(Ac)I[Aib][Aib]EG[Nle]STWS[αMeK][Arg(Me)][Lys(Me3)]K(Ac)K([AEEA-AEEA-AEEA-AEEA-γGlu-γGlu-γGlu-γGlu-Palmitoyl])-NH2) are 0.16 nM and 87%.
As for `CCCCCCCCCCCCCCCC(=O)N[C@@H](CCC(=O)N[C@@H](CCC(=O)N[C@@H](CCC(=O)NCCCC[C@H](NC(=O)COCCOCCNC(=O)COCCOCCNC(=O)COCCOCCNC(=O)COCCOCCNC(=O)[C@H](CCCCNC(C)=O)NC(=O)[C@H](CCCCN)NC(=O)[C@H](CCCNC(=N)N)NC(=O)C(C)(C)NC(=O)[C@H](CO)NC(=O)[C@H](Cc1ccccc1)NC(=O)[C@@H](NC(=O)[C@H](CO)NC(=O)[C@H](CCCC)NC(=O)CNC(=O)[C@H](CCC(=O)O)NC(=O)C(C)(C)NC(=O)C(C)(C)NC(=O)[C@@H](NC(=O)[C@H](CCCCNC(C)=O)NC(=O)[C@H](C)NC(=O)[C@H](CCCNC(=N)N)NC(=O)[C@@H](NC(=O)[C@H](CCCCN)NC(=O)[C@H](CCC(=O)O)NC(=O)[C@H](CCCNC(=N)N)NC(=O)CNC(=O)[C@H](CCC(=O)O)NC(=O)[C@H](CC(C)C)NC(C)=O)C(C)C)[C@@H](C)CC)[C@@H](C)O)C(N)=O)C(=O)O)C(=O)O)C(=O)O` [compound 144] (Ac-LEGREKVRAK(Ac)I[Aib][Aib]EG[Nle]STFS[Aib]RKK(Ac)[AEEA][AEEA][AEEA][AEEA]K([γGlu-γGlu-γGlu-Palmitoyl])-NH2), the Emax came to 94%.
